Where a name gives a salt, the structure may show the parent alone. Read-outs that look alike come from different tables or passages of the source.
What was measured:
[1] = target: hERG potassium ion channel (Homo sapiens, UniProt Q12809); experiment: Inhibitory effect of hERG potassium ion channel (whole-cell patch clamp, HEK-hERG cell line); format: cell-based
Method: A HEK-hERG cell line (IonGate Biosciences, Frankfrut, Germany) which stably expresses hERG was cultured in a DMEM (Dulbecco's modified Eagle's Medium, Sigma Co., St. Louis, Mo., USA) supplemented with 10% fetal bovine serum (FBS, Cambrex, Walkesville, Md., USA) and 0.5 mg/mL zeocin (Invitrogen, Carlsbad, Calif., USA). The cell line was subcultured for 5 days after culture when 80% confluency was reached.
A solution within an electrode used to measure the potassium ion current is composed of 115 mM K-aspartate, 20 mM KCl, 10 mM EGTA, 10 mM HEPES, 2.5 mM tris-phosphocreatine, 0.1 mM Na2GTP and 5 mM MgCl2 (pH 7.2, 290 mOsm/Kg H2O). A solution for an extracellular perfusate is composed of 135 mM NaCl, 5 mM KCl, 1 mM MgCl2, 2 mM CaCl2, 10 mM glucose and 10 mM HEPES (pH 7.2, 300 mOsm/Kg H2O). […]
Potassium ion current was measured by using EPC10 (Instrutech Co., NY, USA) patch clamp amplifier in accordance with the conventional whole-cell patch clamp method. […] The membrane capacitance and series resistance of cell membrane were calibrated by 80% or more and potassium ion current was measured at a sampling rate of 2 kHz and a low-pass filter of 2 kHz (−3 dB; 8-pole Bassel filter). […]
The results were analyzed by using Pulse/Pulsefit (v9.0, HEKA Elektronik, Lambrecht, Germany) and Igor macro. […]

beta-amyloid 42 (Aβ42) = target: T1, beta-amyloid 42 (Aβ42) (Homo sapiens, UniProt P05067); experiment: Inhibitory effect on the formation of beta-amyloid fibrils in vitro (ThT fluorescence assay); format: biochemical; details: for inhibition at 10 µM: 10 μM compound, 25 μM Aβ42, ThT fluorescence
T1 construct: Beta-amyloid 42 (Aβ42) was dissolved in dimethylsulfoxide (DMSO) to form a 250 mM Aβ42 stock solution
Method: Beta-amyloid 42 (Aβ42) was dissolved in dimethylsulfoxide (DMSO) to form a […] Aβ42 stock solution. In addition, ThT (thioflavin T) was dissolved in distilled water to obtain a concentration of 1 mM and subsequently diluted with 50 mM glycin buffer (pH 8.5) to yield a 5 μM ThT stock solution. 45 μL of PBS (phosphate buffer saline, pH 7.4) was added to each of a 96-well fluorescence microplate (white, F-bottom). 5 μL of the 250 μM Aβ42 stock solution was added to each well. The final concentration of each compound obtained in Examples was in a range of 10 to 0.001 μM by adding 2 μL of a solution, which was prepared by dissolving the subject compounds obtained in Examples in DMSO, to each well. At this time, the final concentration of Aβ42 in each well was 25 μM. The plate was then incubated for 1 hr at room temperature, and 150 μL of the 5 μM ThT stock solution was added to each well.
The fluorescence intensity of each well was determined with the multi-label fluorescence counter (LS-55 Luminescence spectrometer: Perkin Elmer) at an excitation wavelength of 450 nm (excitation slit width: 10 nm) and an emission wavelength of 482 nm (emission slit width: 10 nm), while adjusting counting time to 1 second. The control group was prepared by adding PBS solution, Aβ42 and DMSO, without adding the inventive compound prepared above. A percent inhibition on the formation of beta-amyloid fibrils was calculated in accordance with the following equation, and IC50 was calculated by using GraphPad Prism version 4.03 Program.
% Inhibition=[1−(C−D)/(A−B)]×100
A (control group)=fluorescence intensity in a group treated with PBS solution, Aβ42 and DMSO
B (blank)=fluorescence intensity in a group treated with PBS solution and DMSO
C (experimental group)=fluorescence intensity in a group treated with PBS solution, Aβ42, the inventive compound and DMSO
D (compensation value to the experimental group) =fluorescence intensity in a group treated with PBS solution, the inventive compound and DMSO

[2] = Passage test through the blood-brain barrier (brain tissue concentration); format: in vivo, ICR mice and SD rats; details: for Kp: brain, read-out: AUCBrain/AUCPlasma
Method: (§1) Three 7 week-old ICR mice (weight: approximately 30 g) and three 8 week-old SD rats (weight: approximately 250 g) were used per test group. A solution prepared by dissolving a hydrochloride salt of the compound of Example 3 in excipient (DMSO/Tween 20/saline: 0.1/0.6/2.3, v/v/v) was administered to each experimental animal. The test compound was intravenously administered in an amount of 5 mL per kg of body weight through the fine vein or orally administered in an amount of 10 mL per kg of body weight.
At 0.5, 1, 2, 4, 10 and 24 hrs after the administration of the test compound, the mice and rats were subjected to insufflations narcosis using isoflorane, followed by cutting the abdomen open. Subsequently, 1 mL of blood was collected from abdominal veins into the tube containing heparin (1000 IU/mL, 3 μL). The obtained blood samples were centrifuged for 2 min at 12,000 rpm to obtain plasma. The obtained plasmas were kept in a freezer at −80° C. until the analysis.
The mice and rats from which the blood samples were obtained were subjected to bloodletting, and then, the brain tissues of the mice and rats was collected. The brain tissue thus obtained was washed with physiological saline 1 or 2 times to remove blood. The weight of the brain tissue was measured after the removal of adipose tissue and peripheral tissue. 4% bovine serum albumin (BSA) solution diluted with 10-fold was added to the brain tissue. The resulting solution was subjected to homogenization using a homogenizer. The diluted homogenate thus obtained was placed in 2 mL tube and was kept in a freezer at −80° C. until the analysis. All of the treatments to the sample were performed in ice.
(§2) 50 μL of plasma was placed in a 2.0 mL tube with a cap (Eppendorf Co.). An internal standard solution and 1 mL of ethyl acetate as an extract solvent were added to the resulting solution. The resulting solution was mixed by using thermomixer (Eppendorf Co.) for 5 min at 1400 rpm, and then subjected to centrifugation (Eppendorf Co.). The supernatant was collected and concentrated at 35° C. by using a cyclone. The residue was re-dissolved in 50 μL of mobile phase and 5 μL of the resulting solution was injected into LC/MS and analyzed.
(§3) In Table 3, “iv” refers to intravenous injection; “po” refers to per oral; “AUC plasma” refers to an area under the plasma level-time curve; “Cmax” refers to a maximum plasma concentration; “Tmax” refers to a time to reach Cmax; “BA” refers to bioavailability (%) according to Equation 2 below; “AUC Brain” refers to an area under the brain tissue level-time curve; and “AUCBrain/AUCPlasma” refers to a passage rate of the test compound to the brain.

[3] = Pharmacokinetics test (blood concentration) in mice and rats; format: in vivo, ICR mice and SD rats
Method: as §1, with “v/v/v) or distilled water” for “v/v/v)”
At 0.5, 1, 2, 4, 10, and 24 hrs after the oral administration of the test compounds, the blood was collected from periorbital veins into the tube containing heparin (1000 IU/mL, 3 μL) for the mice, and from jugular veins for rats. The blood samples were centrifuged (12,000 rpm for 2 min, Eppendorf Co.) to obtain plasmas and the obtained plasmas were kept in a freezer until the analysis at −80° C.
as §2, with “cap (Eppendorf Co.) and acidified by adding 20 μL of 0.1% formic acid thereto. An internal” for “cap (Eppendorf Co.). An internal”, “by using a thermomixer (Eppendorf” for “by using thermomixer (Eppendorf”, “min at 1,400 rpm, and” for “min at 1400 rpm, and”
as §3
Bioavailability (%)=[(AUCpo/AUCiv)×(Doseiv/Dosepo)×100]
In the above Equation, AUCpo refers to an area under the blood concentration time curve (AUC) after per oral administration, AUCiv means an AUC after the intravenous injection; Doseiv refers to a dose of the intravenous injection; and Dosepo refers to a dose of the per os.

T1 sequence (P05067 672-713 limits assumed): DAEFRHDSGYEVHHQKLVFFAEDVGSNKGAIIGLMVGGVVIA
Chain of hERG potassium ion channel (Q12809 whole entry): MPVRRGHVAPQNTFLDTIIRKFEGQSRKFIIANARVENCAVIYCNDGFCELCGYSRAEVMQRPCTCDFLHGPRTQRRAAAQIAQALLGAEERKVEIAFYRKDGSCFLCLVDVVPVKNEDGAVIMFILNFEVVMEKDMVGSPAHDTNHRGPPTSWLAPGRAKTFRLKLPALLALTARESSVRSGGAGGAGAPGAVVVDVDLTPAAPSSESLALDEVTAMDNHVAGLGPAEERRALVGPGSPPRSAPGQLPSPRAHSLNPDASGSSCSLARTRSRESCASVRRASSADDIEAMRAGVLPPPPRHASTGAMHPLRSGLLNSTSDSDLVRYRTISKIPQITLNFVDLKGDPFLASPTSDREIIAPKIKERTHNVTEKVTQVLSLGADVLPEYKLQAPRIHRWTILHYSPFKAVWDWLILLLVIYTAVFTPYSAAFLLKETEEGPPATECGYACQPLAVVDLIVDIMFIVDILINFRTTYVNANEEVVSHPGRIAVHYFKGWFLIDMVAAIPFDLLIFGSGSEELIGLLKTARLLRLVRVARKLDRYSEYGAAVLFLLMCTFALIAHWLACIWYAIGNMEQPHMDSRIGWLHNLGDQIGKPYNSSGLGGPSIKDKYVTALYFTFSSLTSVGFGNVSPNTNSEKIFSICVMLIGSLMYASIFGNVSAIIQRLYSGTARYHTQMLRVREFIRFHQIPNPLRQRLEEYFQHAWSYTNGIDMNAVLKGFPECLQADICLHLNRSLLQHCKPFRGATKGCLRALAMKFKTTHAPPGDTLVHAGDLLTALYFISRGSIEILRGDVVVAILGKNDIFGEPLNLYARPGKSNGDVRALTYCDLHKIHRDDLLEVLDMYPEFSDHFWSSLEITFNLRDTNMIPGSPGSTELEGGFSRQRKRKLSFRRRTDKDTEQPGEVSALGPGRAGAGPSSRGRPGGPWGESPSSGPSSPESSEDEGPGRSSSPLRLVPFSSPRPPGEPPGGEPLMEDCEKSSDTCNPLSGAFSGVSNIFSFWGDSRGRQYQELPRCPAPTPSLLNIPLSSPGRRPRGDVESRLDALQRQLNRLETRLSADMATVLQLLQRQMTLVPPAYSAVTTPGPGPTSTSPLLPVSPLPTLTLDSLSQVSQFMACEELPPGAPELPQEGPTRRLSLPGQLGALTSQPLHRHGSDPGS

Structure (SMILES)	inhibitory efficacy on hERG potassium ion channel ([1]; result in words)	IC50 ([1]; HEK-hERG cells, whole-cell patch clamp, mean ± standard error)	inhibition at 10 µM (beta-amyloid 42 (Aβ42))	AUC Brain ([2]; 5.0 mg/kg, iv, brain tissue)	AUC Brain ([2]; 10.0 mg/kg, po, brain tissue)	Cmax (brain) ([2]; 10.0 mg/kg, po, brain tissue)	Tmax ([2]; 10.0 mg/kg, po, brain tissue)	Kp ([2]; 5.0 mg/kg, iv)	Kp ([2]; 10.0 mg/kg, po)	BA ([3]; 10.0 mg/kg po vs 5.0 mg/kg iv)	AUC ([3]; plasma, 5.0 mg/kg, iv, n = 3)	AUC ([3]; plasma, 10.0 mg/kg, po, n = 3)	Cmax ([3]; plasma, 10.0 mg/kg, po, n = 3)	Tmax ([3]; plasma, 10.0 mg/kg, po, n = 3)	Aβ42 % inhibition compared with comparative compound curcumin (beta-amyloid 42 (Aβ42); 10 μM)
CN(C)CCOc1ccc2cc(/C=C/c3ccc(N(C)C)cc3)oc2c1 [Example 2, (E)-6-(2-dimethylaminoethoxy)-2-(4-dimethylaminostyryl)benzofuran]	insignificant inhibitory efficacy														
CN(C)CCOc1ccc2cc(/C=C/c3ccc(N(C)C)cc3)oc2c1 [Example 22, (E)-6-(2-dimethylaminoethoxy)-2-(4-dimethylaminostyryl)benzofuran hydrochloride]		52.1 ± 3.68 µM	≥ 70%												
CN(C)CCCOc1ccc2cc(/C=C/c3ccc(N(C)C)cc3)oc2c1.Cl [Example 23, (E)-6-(3-dimethylaminopropoxy)-2-(4-dimethylaminostyryl)benzofuran hydrochloride]			≥ 70%	54,114.7 ng · h/ml	27,412 ng · h/ml	3,828 ng/ml	10 h	101	58.1	43.4%	535 ng·h/mL	472 ng·h/mL	62.7 ng/mL	4 h	equal to or greater than that of the comparative compound, curcumin

Reference: US20150065494A1, “AMINOSTYRYLBENZOFURAN DERIVATIVES AS INHIBITORS AGAINST BETA-AMYLOID FIBRIL FORMATION, AND PHARMACEUTICAL COMPOSITION COMPRISING SAME” (KOREA INSTITUTE OF SCIENCE AND TECHNOLOGY, priority 2012, published 2015)
